In US6479487B1, “6, 9-disubstituted 2-[trans-(4-aminocyclohexyl)amino] purines” (Aventis Pharmaceuticals Inc., priority 1998, dated 2002):
“And” between values parts separate entries of the source, which are not always exact repeats. Equal values may be shown once. Where a name gives a salt, the structure may show the parent alone. Read-outs that look alike come from different tables or passages of the source.

Key:
Colo-205 = assay: In vitro tumor cell proliferation, Colo-205; type: cell-based; settings: values given with an undefined *, read-out: In vitro Tumor Cell Proliferation (IC50, μM) Colon Colo-205
Summary of the method: (§1)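 Growth was quantified by sulforhodamine B staining of TCA-fixed cells after 3 days of drug plus 4 more days with fresh drug, or by CyQUANT after 3 days of drug and freezing at −80° C. Counted viable cells were plated and incubated overnight at 37° C before drug.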

DMS-114 = assay: In vitro tumor cell proliferation, DMS-114; type: cell-based, human; settings: many values given with an undefined *, read-out: In vitro Tumor Cell Proliferation (IC50, μM) Lung DMS-114
Summary of the method: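 Human small cell lung carcinoma DMS-114 cells plated overnight, then drug-treated for 3 days, medium and drug renewed, and incubated 4 more days. Growth read by sulforhodamine B staining after TCA fixation; alternatively by CyQUANT after 3 days' drug exposure and freezing at −80 °C.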

MDA-MB-435 = assay: In vitro tumor cell proliferation, MDA-MB-435; type: cell-based; settings: values given with an undefined *, read-out: In vitro Tumor Cell Proliferation (IC50, μM) Breast MDA-MB-435
Summary of the method: as §1

MDA-MB-231 = assay: In vitro tumor cell proliferation, MDA-MB-231; type: cell-based, human; settings: sulforhodamine B or CyQUANT assay, many values given with an undefined *, read-out: In vitro Tumor Cell Proliferation (IC50, μM) Breast MDA-MB-231
Summary of the method: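 Cells plated overnight at 37 °C, then exposed to drug for 3 days, refed with fresh drug and incubated 4 more days. Read-out by sulforhodamine B staining after TCA fixation; alternatively, CyQUANT after 3-day drug exposure and freezing at −80 °C.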

PC-3 = assay: In vitro tumor cell proliferation, PC-3; type: cell-based, human; settings: many values given with an undefined *, read-out: In vitro Tumor Cell Proliferation (IC50, μM) Prostate PC-3
Summary of the method: as §1

DU145 = assay: In vitro tumor cell proliferation, DU145; type: cell-based, human; settings: many values given with an undefined *, read-out: In vitro Tumor Cell Proliferation (IC50, μM) Prostate DU145
Summary of the method: as §1

A549 = assay: In vitro tumor cell proliferation, A549; type: cell-based, human; settings: many values given with an undefined *, read-out: In vitro Tumor Cell Proliferation (IC50, μM) Lung A549
Summary of the method: as §1

cdk4/cyclin D1 = biological target: T1, cdk4/cyclin D1 (Homo sapiens, UniProt P11802); assay: Cyclin-dependent Kinase 4 Assay (cdk4/cyclin D1, GST-Rb substrate); type: biochemical; settings: cdk4/cyclin D1 insect cell lysate, 10 μM ATP, 30 min at 37° C., several values = separate determinations, read-out: CDK4 Inhibition IC50
T1 construct: made in house; host or cells: Sf9 insect cells (Bac-to-Bac baculovirus, pFastBac)
Summary of the method: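 Insect-cell lysate of coexpressed cdk4/cyclin D1 (0.1 μg) acts on GST-Rb (0.5 μg) bound to glutathione-Sepharose, in 50 mM HEPES pH 7.5, 10 mM MgCl2, 1 mM EGTA. Reaction runs 30 min at 37 °C, then is stopped by filtration and TNEN washes. Rb phosphorylation read by scintillation counting; IC50 derived.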

HT-29 = assay: In vitro tumor cell proliferation, HT-29; type: cell-based, human; settings: many values given with an undefined *, read-out: In vitro Tumor Cell Proliferation (IC50, μM) Colon HT-29
Summary of the method: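 HT-29 cells seeded overnight at 37° C, then exposed to drug for 3 days, refed with fresh drug-containing medium for 4 more days. Proliferation read by sulforhodamine B staining after TCA fixation; alternatively by CyQUANT after freezing plates at −80° C following 3 days' drug exposure.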

cdk2/cyclin E = biological target: T2, cdk2/cyclin E (Homo sapiens, UniProt P24941); assay: Cyclin-Dependent Kinase 2 Assay (cdk2/cyclin E, GST-Rb substrate); type: biochemical; settings: recombinant cdk2/cyclin E, 10 μM ATP, 30 min at 30° C., several values in a cell = separate determinations, read-out: CDK-2 Inhibition IC50
T2 construct: made in house; host or cells: insect cells (baculovirus co-infection)
Procedure: Substrate: GST-Rb as described above for cdk4/cyclin D1
Assay conditions for cdk2/cyclin E were identical to those for cdk4/cyclin D1 including the substrate. The concentration of recombinant cdk2/cyclin E in the assay was 0.1 μg per 100 μl assay. Incubation was for 30 min at 30° C.

[1] = Homo sapiens, MDA-MB-435, MDA-MB-435
[2] = Homo sapiens, MDA-MB-231, MDA-MB-231
[3] = Homo sapiens, COLO 205, Colo-205

T1 sequence (P11802 whole entry): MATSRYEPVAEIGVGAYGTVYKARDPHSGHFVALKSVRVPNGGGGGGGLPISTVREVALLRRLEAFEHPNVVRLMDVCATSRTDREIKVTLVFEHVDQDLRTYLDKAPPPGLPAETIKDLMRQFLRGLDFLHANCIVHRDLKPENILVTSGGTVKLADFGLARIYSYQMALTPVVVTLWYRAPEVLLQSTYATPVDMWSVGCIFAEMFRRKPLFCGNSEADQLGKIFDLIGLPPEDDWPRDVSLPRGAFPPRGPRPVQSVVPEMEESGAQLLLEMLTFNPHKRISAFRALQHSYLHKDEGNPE
T1 sequence (P24385 whole entry partner): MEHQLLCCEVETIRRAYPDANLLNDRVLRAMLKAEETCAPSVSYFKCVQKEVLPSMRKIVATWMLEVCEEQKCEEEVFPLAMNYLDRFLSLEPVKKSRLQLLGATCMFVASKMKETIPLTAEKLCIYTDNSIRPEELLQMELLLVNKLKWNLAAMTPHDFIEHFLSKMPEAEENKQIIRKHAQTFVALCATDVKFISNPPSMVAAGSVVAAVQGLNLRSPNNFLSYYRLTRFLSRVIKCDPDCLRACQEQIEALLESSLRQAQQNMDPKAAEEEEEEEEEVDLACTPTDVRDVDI

Row | SMILES | IC50 (Colo-205; Colo-205, trihydrochloride) | IC50 (DMS-114; DMS-114, trihydrochloride) | IC50 (DMS-114; Homo sapiens, DMS-114, DMS-114) [µM] | IC50 (MDA-MB-435; [1]) [µM] | IC50 (MDA-MB-435; MDA-MB-435, trihydrochloride) | IC50 (MDA-MB-231; [2]) [µM] | IC50 (PC-3; Homo sapiens, PC-3, PC-3) [µM] | IC50 (PC-3; PC-3, trihydrochloride) | IC50 (DU145; DU145, trihydrochloride) | IC50 (DU145; Homo sapiens, DU-145, DU145) [µM] | IC50 (A549; A549, trihydrochloride) | IC50 (A549; Homo sapiens, A549, A549) [µM] | IC50 (cdk4/cyclin D1) | IC50 (HT-29; HT-29, trihydrochloride) | IC50 (HT-29; Homo sapiens, HT-29, HT-29) [µM] | IC50 (cdk2/cyclin E) | IC50 (Colo-205; [3]) [µM] | IC50 (MDA-MB-231; MDA-MB-231, trihydrochloride) | IC50 (cdk4/cyclin D1; trihydrochloride) | IC50 (cdk2/cyclin E; trihydrochloride)
1 | N[C@H]1CC[C@H](Nc2nc(NC3CCN(Cc4ccc(F)cc4Cl)CC3)c3ncn(C4CCCC4)c3n2)CC1 [Example 147-t, 2-[Trans-(4-aminocyclohexyl)amino]-6-[4-[1-(2-chloro-4-fluorobenzyl)]piperidinylamino]-9-cyclopentylpurine trihydrochloride] | 0.36 µM | 0.46 µM | 0.71 | 0.41 | 0.69 µM | 0.37 | 0.37 | 0.45 µM | 0.38 µM | 0.33 | 0.28 µM | 0.3 | 2200 nM and 1700 nM | 0.48 µM | 0.42 | 250 nM and 160 nM and 340 nM |  |  |  | 
2 | N[C@H]1CC[C@H](Nc2nc(NC3CCN(Cc4ccc(F)c(F)c4)CC3)c3ncn(C4CCCC4)c3n2)CC1 [Example 147-u, 2-[Trans-(4-aminocyclohexyl)amino]-6-[4-[1-(3,4-difluorobenzyl)]piperidinylamino]-9-cyclopentylpurine trihydrochloride] | 0.22 µM | 0.35 µM | 0.62 | 0.47 | 0.48 µM | 0.33 | 0.35 | 0.43 µM | 0.28 µM | 0.38 | 0.19 µM | 0.27 | 2800 nM and 2600 nM | 0.33 µM | 0.41 | 150 nM and 110 nM | 0.28 | 0.36 µM |  | 
3 | N[C@H]1CC[C@H](Nc2nc(NC3CCN(Cc4c(F)cccc4F)CC3)c3ncn(C4CCCC4)c3n2)CC1 [Example 147-v, 2-[Trans-(4-aminocyclohexyl)amino]-6-[4-[1-(2,6-difluorobenzyl)]piperidinylamino]-9-cyclopentylpurine trihydrochloride] | 0.77 µM | 1.1 µM | 1.9 | 1 | 1.3 µM | 0.63 | 0.85 | 1.1 µM | 0.57 µM | 0.52 | 0.63 µM | 0.5 | 2000 nM and 3400 nM | 0.83 µM | 0.76 | 240 nM | 0.58 | 1.2 µM |  | 
4 | N[C@H]1CC[C@H](Nc2nc(NC3CCN(Cc4cc(Cl)cc(Cl)c4)CC3)c3ncn(C4CCCC4)c3n2)CC1 [Example 147-w, 2-[Trans-(4-aminocyclohexyl)amino]-6-[4-[1-(3,5-dichlorobenzyl)]piperidinylamino]-9-cyclopentylpurine trihydrochloride] |  |  | 0.45 | 0.57 | 0.51 µM | 0.35 | 0.44 | 0.46 µM | 0.39 µM | 0.35 |  | 0.21 | 4000 nM and 2100 nM | 0.39 µM | 0.37 | 130 nM and 180 nM | 0.32 | 0.4 µM |  | 
5 | N[C@H]1CC[C@H](Nc2nc(NC3CCN(Cc4ccc(Cl)cc4Cl)CC3)c3ncn(C4CCCC4)c3n2)CC1 [Example 147-x, 2-[Trans-(4-aminocyclohexyl)amino]-6-[4-[1-(2,4-dichlorobenzyl)]piperidinylamino]-9-cyclopentylpurine trihydrochloride] | 0.62 µM | 0.7 µM | 1 | 0.75 | 0.92 µM | 0.85 | 0.54 | 0.65 µM | 0.53 µM | 0.49 | 0.45 µM | 0.44 | 3800 nM and 3900 nM | 0.6 µM | 0.72 | 320 nM | 0.59 | 0.67 µM |  | 
6 | Cc1ccc(CN2CCC(Nc3nc(N[C@H]4CC[C@H](N)CC4)nc4c3ncn4C3CCCC3)CC2)cc1Cl [Example 147-y, 2-[Trans-(4-aminocyclohexyl)amino]-6-[4-[1-(3-chloro-4-methylbenzyl)]piperidinylamino]-9-cyclopentylpurine trihydrochloride] | 0.32 µM and 0.35 µM | 0.4 µM and 0.45 µM |  |  | 0.47 µM and 0.55 µM |  |  | 0.35 µM and 0.46 µM | 0.33 µM and 0.35 µM |  | 0.16 µM and 0.29 µM |  |  | 0.41 µM and 0.38 µM |  |  |  | 0.34 µM and 0.35 µM | 5400 nM and 4800 nM | 510 nM and 670 nM
7 | N[C@H]1CC[C@H](Nc2nc(NC3CCN(Cc4ccc(OC(F)(F)F)cc4)CC3)c3ncn(C4CCCC4)c3n2)CC1 [Example 147-z, 2-[Trans-(4-aminocyclohexyl)amino]-6-[4-[1-(4-trifluoromethoxybenzyl)]piperidinylamino]-9-cyclopentylpurine trihydrochloride] | 0.38 µM and 0.46 µM | 0.34 µM and 0.42 µM |  |  | 0.5 µM and 0.57 µM |  |  | 0.33 µM and 0.44 µM | 0.28 µM and 0.36 µM |  | 0.18 µM and 0.3 µM |  |  | 0.43 µM and 0.44 µM |  |  |  | 0.37 µM and 0.35 µM | 7900 nM and 5700 nM | 720 nM and 1000 nM
